Experimental data: US11214803B2, “Modulators of YAP1 expression” (Ionis Pharmaceuticals, Inc., priority 2019, dated 2022)
Strand notation (5' to 3'): a small letter for the sugar, then the base; units joined by * are phosphorothioate-linked, units joined directly phosphodiester-linked; [ ] holds rarer units or linkages, { } end groups; capitals alone tell only the bases. k = constrained ethyl (cEt); [5mC] = 5-methylcytosine; d = 2'-deoxy (DNA)

Tested on: Yap1 mRNA
Assay: Antisense inhibition of human Yap1 in A-431 cells by cEt gapmers, single dose (Example 3, RTS36584)
Format: cell-based
Summary of the method: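 Values are % untreated control: Yap1 mRNA by quantitative RT-PCR (RTS36584), normalized to total RNA by RiboGreen. Before RNA isolation, 5,000 A-431 cells per well were exposed ~48 h to 2,000 nM 16-mer cEt gapmer, delivered without transfection reagent.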

[1] = Table 11, A-431 cells, 5,000 cells per well, free uptake, 2,000 nM oligonucleotide, approx. 48 hours, primer probe set RTS36584, Yap1 mRNA normalized to RIBOGREEN, percent of untreated control
[2] = Table 10, A-431 cells, 5,000 cells per well, free uptake, 2,000 nM oligonucleotide, approx. 48 hours, primer probe set RTS36584, Yap1 mRNA normalized to RIBOGREEN, percent of untreated control
[3] = Table 13, A-431 cells, 5,000 cells per well, free uptake, 2,000 nM modified oligonucleotide, approx. 48 hours, RTS36584, normalized to RIBOGREEN, Yap1 mRNA relative to untreated control cells
[4] = Table 27, Yap1 mRNA by 3-10-3 cEt gapmers targeting SEQ ID NO.: 1, and 2, percent of untreated control
[5] = Table 34, Yap1 mRNA as percent of untreated control, 3-10-3 cEt gapmers targeting SEQ ID NO: 1 and 2, single dose
[6] = Table 8, A-431 cells, 5,000 cells per well, free uptake, 2,000 nM, approximately 48 hours, RTS36584, normalized to RIBOGREEN, Yap1 mRNA relative to untreated control cells
[7] = Table 9, A-431 cells, 5,000 cells per well, free uptake, 2,000 nM, approximately 48 hours, RTS36584, normalized to RIBOGREEN, Yap1 mRNA relative to untreated control cells
[8] = Table 28, Yap1 mRNA as percent of untreated control, 3-10-3 cEt gapmers targeting SEQ ID NO.: 1, and 2
[9] = Table 26, Yap1 mRNA by 3-10-3 cEt gapmers targeting SEQ ID NO.: 1, and 2, percent of untreated control
[10] = Table 35, Yap1 mRNA as percent of untreated control, 3-10-3 cEt gapmers targeting SEQ ID NO: 1 and 2, single dose
[11] = Table 12, A-431 cells, 5,000 cells per well, free uptake, 2,000 nM modified oligonucleotide, approx. 48 hours, RTS36584, normalized to RIBOGREEN, Yap1 mRNA relative to untreated control cells
[12] = Table 29, Yap1 mRNA as percent of untreated control, 3-10-3 cEt gapmers targeting SEQ ID NO.: 1, and 2

Substance: 958458 (antisense kG*kT*kT*d[5mC]*dA*dT*d[5mC]*dT*dG*dG*dG*dA*d[5mC]*kA*kG*k[5mC]) [Compound 958458]
- YAP1 (% UTC) [1]: 12 % UTC

Substance: 958767 (antisense kA*k[5mC]*kG*dA*dA*dT*dA*dA*dG*dG*d[5mC]*dA*dT*kT*kA*kG) [Compound 958767]
- YAP1 (% UTC) [2]: 6 % UTC

Substance: 958730 (antisense k[5mC]*kT*k[5mC]*dT*dG*dT*d[5mC]*dA*dG*dT*dT*dA*dT*k[5mC]*k[5mC]*kT) [Compound 958730]
- YAP1 (% UTC) [3]: 4 % UTC

Substance: 958775 (antisense kG*kT*k[5mC]*dT*dA*dT*dA*d[5mC]*dG*dG*dG*dA*dG*kA*kT*kT) [Compound 958775]
- YAP1 (% UTC) [3]: 29 % UTC

Substance: 1074637 (antisense kA*kA*kT*d[5mC]*dT*dA*dT*d[5mC]*dT*dT*d[5mC]*d[5mC]*d[5mC]*kA*kA*kG) [compound 1074637]
- YAP1 (% UTC) [4]: 36 % UTC

Substance: 958640 (antisense kT*kA*kG*dA*dT*dA*dA*d[5mC]*dT*dG*dT*d[5mC]*dT*k[5mC]*k[5mC]*k[5mC]) [Compound 958640]
- YAP1 (% UTC) [3]: 13 % UTC

Substance: 958472 (antisense kT*k[5mC]*k[5mC]*dT*dT*dA*dG*dA*dT*d[5mC]*d[5mC]*dT*dT*k[5mC]*kA*k[5mC]) [Compound 958472]
- YAP1 (% UTC) [2]: 5 % UTC

Substance: 1074804 (kT*kA*kG*d[5mC]*dA*dA*dA*dG*dT*d[5mC]*dA*d[5mC]*dT*kT*k[5mC]*k[5mC]; antisense) [compound 1074804]
- YAP1 (% UTC) [5]: 15 % UTC

Substance: 958409 (antisense kT*kT*kA*d[5mC]*d[5mC]*dA*dA*dA*dA*d[5mC]*dG*dA*dG*kG*kG*kT) [Compound 958409]
- YAP1 (% UTC) [6]: 99 % UTC

Substance: 958786 (antisense kT*kA*kT*dG*dT*d[5mC]*d[5mC]*dT*dA*d[5mC]*dT*dT*dT*k[5mC]*k[5mC]*k[5mC]) [Compound 958786]
- YAP1 (% UTC) [7]: 10 % UTC

Substance: 1074573 (DNA kA*kT*kT*dA*dT*dG*dA*dA*d[5mC]*d[5mC]*dT*dA*d[5mC]*kT*k[5mC]*kA) [compound 1074573]
- YAP1 (% UTC) [4]: 14 % UTC

Substance: 958463 (antisense k[5mC]*k[5mC]*kT*dG*dA*dG*dA*d[5mC]*dA*dT*d[5mC]*d[5mC]*d[5mC]*kG*kG*kG) [Compound 958463]
- YAP1 (% UTC) [1]: 63 % UTC

Substance: 958765 (antisense kG*kT*kA*d[5mC]*dA*dG*dG*dA*dG*dA*dG*dA*dT*kT*kG*k[5mC]) [Compound 958765]
- YAP1 (% UTC) [3]: 37 % UTC

Substance: 1075470 (antisense kG*k[5mC]*k[5mC]*dA*dA*dT*dA*dA*dG*dT*dT*dA*dT*k[5mC]*kA*kA) [compound 1075470]
- YAP1 (% UTC) [8]: 50 % UTC

Substance: 958636 (antisense k[5mC]*k[5mC]*kG*d[5mC]*dA*d[5mC]*d[5mC]*dG*d[5mC]*dG*dG*d[5mC]*d[5mC]*k[5mC]*kG*kG) [Compound 958636]
- YAP1 (% UTC) [7]: 126 % UTC

Substance: 1075852 (kG*kA*kT*dA*dA*dG*d[5mC]*d[5mC]*dG*dA*dA*dT*dA*kT*kG*kG; antisense) [compound 1075852]
- YAP1 (% UTC) [9]: 58 % UTC

Substance: 1074261 (antisense k[5mC]*k[5mC]*kG*dA*dG*dT*dT*d[5mC]*dA*dT*d[5mC]*dA*dT*kA*kT*kT) [compound 1074261]
- YAP1 (% UTC) [10]: 19 % UTC

Substance: 958471 (antisense k[5mC]*kT*kT*dA*dG*dA*dT*d[5mC]*d[5mC]*dT*dT*d[5mC]*dA*k[5mC]*kA*kG) [Compound 958471]
- YAP1 (% UTC) [7]: 14 % UTC

Substance: 958678 (kG*kG*kA*dG*dG*dA*dG*dT*d[5mC]*dA*d[5mC]*d[5mC]*dA*kT*kG*kG; antisense) [Compound 958678]
- YAP1 (% UTC) [1]: 74 % UTC

Substance: 958592 (k[5mC]*kG*kT*dA*dA*dG*dA*dT*d[5mC]*dA*dA*dA*dG*k[5mC]*kA*k[5mC]; antisense) [Compound 958592]
- YAP1 (% UTC) [2]: 12 % UTC

Substance: 958581 (k[5mC]*kT*kG*d[5mC]*dT*dG*dA*dT*dA*dT*dA*dT*dA*kA*kG*kA; antisense) [Compound 958581]
- YAP1 (% UTC) [7]: 26 % UTC

Substance: 958410 (antisense kT*kT*kT*dA*d[5mC]*d[5mC]*dA*dA*dA*dA*d[5mC]*dG*dA*kG*kG*kG) [Compound 958410]
- YAP1 (% UTC) [6]: 70 % UTC

Substance: 958622 (antisense kG*kA*kT*dA*dT*dT*d[5mC]*d[5mC]*dG*d[5mC]*dA*dT*dT*kG*k[5mC]*k[5mC]) [Compound 958622]
- YAP1 (% UTC) [2]: 3 % UTC

Substance: 1076493 (kT*kG*kA*d[5mC]*dA*dA*dT*dA*dA*dG*dG*dG*dA*k[5mC]*kA*kA; antisense) [compound 1076493]
- YAP1 (% UTC) [4]: 34 % UTC

Substance: 1075694 (kA*k[5mC]*kA*dT*dT*dA*dA*dA*dA*dG*dT*dT*dG*kG*kG*kT; antisense) [compound 1075694]
- YAP1 (% UTC) [8]: 11 % UTC

Substance: 1075500 (kT*kA*kA*dA*dT*dT*dA*dA*dG*d[5mC]*d[5mC]*dA*dA*k[5mC]*kA*k[5mC]; antisense) [compound 1075500]
- YAP1 (% UTC) [9]: 26 % UTC

Substance: 958416 (antisense kG*k[5mC]*kT*dG*dT*dG*dT*dA*dG*dG*d[5mC]*dT*dG*kA*k[5mC]*kT) [Compound 958416]
- YAP1 (% UTC) [6]: 36 % UTC

Substance: 1074581 (DNA kA*kA*k[5mC]*d[5mC]*dA*d[5mC]*dT*dA*dT*dA*dA*dA*dG*k[5mC]*kT*kT; antisense) [compound 1074581]
- YAP1 (% UTC) [10]: 18 % UTC

Substance: 958376 (antisense k[5mC]*kT*kG*dG*dG*dA*dT*dT*dG*dA*dT*dA*dT*kT*k[5mC]*k[5mC]) [Compound 958376]
- YAP1 (% UTC) [6]: 31 % UTC

Substance: 958594 (k[5mC]*kT*k[5mC]*dT*dT*dA*dG*dG*dT*d[5mC]*dT*d[5mC]*d[5mC]*kT*kT*k[5mC]; antisense) [Compound 958594]
- YAP1 (% UTC) [11]: 8 % UTC

Substance: 1075567 (kG*kA*kT*dA*dT*dA*dT*dA*dA*d[5mC]*dA*dG*dG*k[5mC]*k[5mC]*kA; antisense) [compound 1075567]
- YAP1 (% UTC) [12]: 65 % UTC

Substance: 1075668 (antisense kA*kA*kT*dT*dA*dT*dT*dG*dG*dT*dG*dA*d[5mC]*kA*k[5mC]*kT) [compound 1075668]
- YAP1 (% UTC) [5]: 80 % UTC

Substance: 958459 (antisense k[5mC]*kT*kG*dA*dA*dG*d[5mC]*d[5mC]*dG*dA*dG*dT*dT*k[5mC]*kA*kT) [Compound 958459]
- YAP1 (% UTC) [11]: 28 % UTC

Substance: 1074191 (antisense kA*k[5mC]*kG*dG*d[5mC]*dG*dG*dG*d[5mC]*d[5mC]*d[5mC]*dT*dG*k[5mC]*k[5mC]*k[5mC]) [compound 1074191]
- YAP1 (% UTC) [12]: 80 % UTC

Substance: 1075828 (kT*kT*kA*dG*dA*dA*dT*dA*dG*dT*dT*d[5mC]*dT*kA*k[5mC]*k[5mC]; antisense) [compound 1075828]
- YAP1 (% UTC) [5]: 59 % UTC

Substance: 958529 (k[5mC]*kA*kA*dG*dT*d[5mC]*dT*dT*dG*dT*dA*dA*dG*kT*kA*kA; antisense) [Compound 958529]
- YAP1 (% UTC) [11]: 3 % UTC

Substance: 958702 (antisense kT*kG*kA*dT*dG*dT*d[5mC]*dT*dT*dG*dT*d[5mC]*d[5mC]*kA*kG*kA) [Compound 958702]
- YAP1 (% UTC) [2]: 16 % UTC

Substance: 958706 (antisense kT*k[5mC]*kG*d[5mC]*dA*dT*dG*dG*d[5mC]*d[5mC]*dA*d[5mC]*dT*kG*k[5mC]*k[5mC]) [Compound 958706]
- YAP1 (% UTC) [7]: 112 % UTC

Substance: 958392 (antisense k[5mC]*kT*kA*dT*dG*dA*dG*dT*d[5mC]*dA*dA*d[5mC]*d[5mC]*kT*kG*k[5mC]) [Compound 958392]
- YAP1 (% UTC) [6]: 50 % UTC

Substance: 958655 (kG*k[5mC]*kA*dA*dT*d[5mC]*dT*dG*dT*dG*dA*dT*d[5mC]*k[5mC]*k[5mC]*kA; antisense) [Compound 958655]
- YAP1 (% UTC) [3]: 12 % UTC

Substance: 1074415 (kG*k[5mC]*k[5mC]*dA*dA*d[5mC]*dT*dG*dT*dG*dA*dA*dA*kG*kA*kG; antisense) [compound 1074415]
- YAP1 (% UTC) [12]: 10 % UTC

Substance: 1074516 (kT*kT*kA*dA*d[5mC]*dT*dG*dG*dA*dA*dA*dG*d[5mC]*kA*kG*kG; antisense) [compound 1074516]
- YAP1 (% UTC) [5]: 22 % UTC

Substance: 958814 (kG*kG*k[5mC]*dT*dA*dT*dG*d[5mC]*d[5mC]*dT*d[5mC]*dT*d[5mC]*kT*kT*kA; antisense) [Compound 958814]
- YAP1 (% UTC) [11]: 214 % UTC
